Article PMC6641755 (ACS Omega, 2017)

Columns and labels:
Assay type in all cases: binding
BLK = BLK (Homo sapiens, UniProt P51451); assay: KinomeScan
[1] = target: T1, TYK2 (JH1domain-catalytic) (Homo sapiens, UniProt P29597); assay: KinomeScan
T1 sequence (P29597 897-1176 limits assumed): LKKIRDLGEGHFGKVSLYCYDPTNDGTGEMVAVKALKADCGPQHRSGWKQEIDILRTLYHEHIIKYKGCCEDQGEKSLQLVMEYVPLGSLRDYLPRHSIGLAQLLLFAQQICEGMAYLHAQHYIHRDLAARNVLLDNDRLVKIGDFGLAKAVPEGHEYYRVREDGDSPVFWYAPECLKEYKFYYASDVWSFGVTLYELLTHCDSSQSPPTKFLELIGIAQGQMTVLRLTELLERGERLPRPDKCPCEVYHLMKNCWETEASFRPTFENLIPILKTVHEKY

[2] = target: Bruton's tyrosine kinase (Btk) kinase domain (Homo sapiens, UniProt Q06187); assay: ITC titration
Bruton's tyrosine kinase (Btk) kinase domain, sequence (Q06187 387-569): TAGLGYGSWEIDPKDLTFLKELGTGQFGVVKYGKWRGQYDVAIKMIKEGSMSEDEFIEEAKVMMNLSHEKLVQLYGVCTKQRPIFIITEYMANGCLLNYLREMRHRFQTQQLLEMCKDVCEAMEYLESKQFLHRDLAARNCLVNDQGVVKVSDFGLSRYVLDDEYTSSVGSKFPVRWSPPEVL

BLK, sequence (P51451 2-505): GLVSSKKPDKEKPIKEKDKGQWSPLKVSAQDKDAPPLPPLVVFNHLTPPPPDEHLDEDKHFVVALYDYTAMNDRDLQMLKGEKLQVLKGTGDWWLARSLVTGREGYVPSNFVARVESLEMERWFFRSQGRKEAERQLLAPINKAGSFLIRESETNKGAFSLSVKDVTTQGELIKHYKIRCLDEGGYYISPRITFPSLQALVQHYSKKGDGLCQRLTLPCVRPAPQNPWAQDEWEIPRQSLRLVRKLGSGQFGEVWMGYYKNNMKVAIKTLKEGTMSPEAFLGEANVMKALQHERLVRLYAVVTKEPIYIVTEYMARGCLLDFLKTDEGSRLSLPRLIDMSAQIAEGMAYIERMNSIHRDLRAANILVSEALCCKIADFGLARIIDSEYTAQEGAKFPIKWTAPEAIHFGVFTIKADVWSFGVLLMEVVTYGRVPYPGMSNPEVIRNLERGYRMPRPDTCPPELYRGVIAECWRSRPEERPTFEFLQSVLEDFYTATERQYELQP

activity at 10 µM (BLK): 0.4% | activity at 10 µM [1]: 0.8% | Kd [2]: 250 nM
Structure (SMILES): c1nc2c(Nc3ccc4c(c3)OCCO4)nc(Nc3ccc4c(c3)OCCO4)nc2[nH]1 [L6, N2,N6-bis(2,3-dihydrobenzo[b][1,4]dioxin-6-yl)-9H-purine-2,6-diamine]
